In ChEMBL document CHEMBL1201862, “PubChem BioAssay data set” (2004):
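Cultured in 96-well plates, cells were exposed to test compound for 48 hours across five concentrations. Here, GI50 denotes the concentration required for 50% inhibition of growth.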 Calls of active or inactive are those of the source. Rule as the data show it: active = GI50 up to about 1.1 µM and inactive = higher. Starred links: 1 amine or outer side, 2 acyl side, 3 side chain; linkers in the order of their positions; H or OH if unused. Positions of bridges follow the written chain, without caps; N, C: chain ends. Where a SMILES comes first, the peptide text is derived from it. Non-standard residues stand in square brackets, D forms with d. Residues, ends and D or L forms follow the SMILES beside them. [ ]: non-standard residue; d: D form. ξ: configuration not given here. *: point of attachment. γ4hArg(2R,3R-(OH)2) = N=C(N)NCCC[C@H](N[*:1])[C@@H](O)[C@@H](O)C(=O)[*:2]; Gln(3S,4R-Me2) = C[C@H]([C@H](N)C(=O)O)[C@@H](C)C(N)=O; X50 = CC(C)C[C@H](C)[C@@H](O)[C@@H](C)C(=O)*; X51 = COC(c1ccc(O)cc1)C(N[*:1])C(=O)[*:2]; ξThz(5,5-Me2) = CC1(C)SCNC1C(=O)O; NMeQ = CN[C@@H](CCC(N)=O)C(=O)O; Thr(3ξ) = CC(O)[C@H](N)C(=O)O; NMeA = CN[C@@H](C)C(=O)O

Experiments:
Assay in all cases: NCI tumour cell line growth inhibition, 48 h
MDA-MB-435 = tested on: MDA-MB-435
SF-268 = tested on: SF-268
SK-OV-3 = tested on: SK-OV-3
Hs-578T = tested on: Hs-578T
SK-MEL-28 = tested on: SK-MEL-28
U-251 = tested on: U-251
RPMI-8226 = tested on: RPMI-8226
ACHN = tested on: ACHN
SF-295 = tested on: SF-295
CCRF-CEM = tested on: CCRF-CEM
TK-10 = tested on: TK-10
IGROV-1 = tested on: IGROV-1
M14 = tested on: M14
OVCAR-5 = tested on: OVCAR-5
CAKI-1 = tested on: CAKI-1
Malme-3M = tested on: Malme-3M
HCT-15 = tested on: HCT-15
OVCAR-8 = tested on: OVCAR-8
RXF 393 = tested on: RXF 393
HOP-62 = tested on: HOP-62

Measured: GI50

COc1cc(C2c3cc4c(cc3OC(Nc3ccc(C(=O)O)cc3)C2C)OCO4)cc(OC)c1OC (stereo not given)
inactive: Hs-578T 1.39 µM | SK-MEL-28 11.1 µM | ACHN 1.38 µM | TK-10 25.4 µM
0.294 µM: HCT-15
active: MDA-MB-435 0.0317 µM | SF-268 0.504 µM | SK-OV-3 0.362 µM | U-251 0.346 µM | RPMI-8226 0.337 µM | SF-295 0.214 µM | CCRF-CEM 0.282 µM | IGROV-1 0.618 µM | M14 0.301 µM | OVCAR-5 0.841 µM | CAKI-1 0.204 µM | Malme-3M 0.0655 µM | OVCAR-8 0.422 µM | RXF 393 0.115 µM | HOP-62 0.446 µM

CSCC[C@H](NC(=O)[C@H](CC(C)C)NC(=O)[C@H](Cc1c[nH]cn1)NC(=O)CNC(=O)C1N(C(=O)[C@@H](C)NC(=O)[C@H](Cc2c[nH]c3ccccc23)NC(=O)[C@H](CCC(N)=O)NC(=O)[C@@H](N)CC(N)=O)CSC1(C)C)C(N)=O (stereo not given in full) (H-NQW[dA][ξThz(5,5-Me2)]GHLM-NH2)
> 25 µM: HCT-15
inactive: MDA-MB-435 > 25 µM | SF-268 > 25 µM | SK-OV-3 > 25 µM | Hs-578T > 25 µM | SK-MEL-28 > 25 µM | U-251 > 25 µM | RPMI-8226 > 25 µM | ACHN > 25 µM | SF-295 > 25 µM | CCRF-CEM > 25 µM | TK-10 > 25 µM | IGROV-1 > 25 µM | M14 > 25 µM | OVCAR-5 > 25 µM | CAKI-1 > 25 µM | Malme-3M > 25 µM | OVCAR-8 > 25 µM | RXF 393 > 25 µM | HOP-62 > 25 µM

CSC(=N/N=C(\C)c1ccc(S(=O)(=O)N(C)c2ccccc2)cc1)SC
> 66.7 µM: HCT-15
inactive: MDA-MB-435 > 62.8 µM | SF-268 > 66.5 µM | SK-OV-3 > 66.5 µM | Hs-578T > 59.4 µM | SK-MEL-28 > 67.9 µM | U-251 > 51.9 µM | RPMI-8226 13.1 µM | ACHN > 70 µM | SF-295 > 64.7 µM | CCRF-CEM 15.6 µM | TK-10 > 100 µM | IGROV-1 > 61.4 µM | M14 > 63.1 µM | OVCAR-5 > 66.5 µM | CAKI-1 > 64.9 µM | Malme-3M > 100 µM | OVCAR-8 > 100 µM | RXF 393 27.7 µM | HOP-62 > 62.5 µM

CN/N=C(/C=C/c1ccccc1)C(C)C
> 100 µM: HCT-15
inactive: MDA-MB-435 > 100 µM | SF-268 > 100 µM | SK-OV-3 > 100 µM | Hs-578T > 100 µM | SK-MEL-28 > 100 µM | U-251 > 100 µM | RPMI-8226 > 100 µM | ACHN > 100 µM | SF-295 > 100 µM | CCRF-CEM > 100 µM | TK-10 > 100 µM | IGROV-1 > 100 µM | M14 > 100 µM | OVCAR-5 > 100 µM | CAKI-1 > 100 µM | Malme-3M > 100 µM | OVCAR-8 > 100 µM | RXF 393 > 100 µM | HOP-62 > 100 µM

O=C1Nc2ccccc2/C1=N/N1C(=O)/C(=C/c2ccccc2S)N=C1c1ccccc1
83 µM: HCT-15
inactive: MDA-MB-435 42.3 µM | SF-268 > 100 µM | SK-OV-3 > 100 µM | Hs-578T > 100 µM | SK-MEL-28 > 100 µM | U-251 67.6 µM | RPMI-8226 12.6 µM | ACHN 92.3 µM | SF-295 > 100 µM | CCRF-CEM 33.3 µM | TK-10 > 100 µM | IGROV-1 97.1 µM | M14 > 100 µM | OVCAR-5 > 100 µM | CAKI-1 91.6 µM | Malme-3M > 100 µM | OVCAR-8 36.2 µM | RXF 393 68.9 µM | HOP-62 > 100 µM

O=c1nc2n3c4c(cccc4nc-2c(=O)[nH]1)CCC3
inactive: MDA-MB-435 61.9 µM | SF-268 > 100 µM | SK-OV-3 > 100 µM | Hs-578T 28.2 µM | SK-MEL-28 > 100 µM | U-251 > 100 µM | RPMI-8226 > 100 µM | ACHN > 100 µM | SF-295 > 100 µM | CCRF-CEM > 100 µM | TK-10 > 100 µM | IGROV-1 > 100 µM | M14 > 100 µM | OVCAR-5 > 100 µM | CAKI-1 > 100 µM | Malme-3M 21.6 µM | OVCAR-8 > 100 µM | RXF 393 > 100 µM | HOP-62 > 100 µM
> 100 µM: HCT-15

CC(C)NC(=O)OCc1c(COC(=O)NC(C)C)n(C)c2c1ccc1ccccc12
1.54 µM: HCT-15
inactive: MDA-MB-435 1.52 µM | SF-268 1.9 µM | SK-OV-3 9.82 µM | SK-MEL-28 1.99 µM | U-251 1.63 µM | RPMI-8226 1.19 µM | ACHN 1.48 µM | SF-295 4.56 µM | TK-10 1.63 µM | IGROV-1 1.43 µM | M14 1.63 µM | OVCAR-5 2.97 µM | OVCAR-8 1.8 µM | RXF 393 1.25 µM | HOP-62 4.75 µM
active: Hs-578T 0.971 µM | CCRF-CEM 0.112 µM | CAKI-1 0.542 µM | Malme-3M 0.877 µM

CC1N(C)C(=O)OC12CCN(CCCC(=O)c1ccc(F)cc1)CC2 (stereo not given)
inactive: MDA-MB-435 > 100 µM | SF-268 > 100 µM | SK-OV-3 > 100 µM | Hs-578T > 100 µM | SK-MEL-28 > 100 µM | U-251 > 100 µM | RPMI-8226 > 100 µM | ACHN > 100 µM | SF-295 > 100 µM | CCRF-CEM > 100 µM | TK-10 > 100 µM | IGROV-1 > 100 µM | M14 > 100 µM | OVCAR-5 > 100 µM | CAKI-1 > 100 µM | Malme-3M > 100 µM | OVCAR-8 > 100 µM | RXF 393 > 100 µM | HOP-62 > 100 µM
> 100 µM: HCT-15

O=C1NC(=O)C2(CCCCCC2)N1
inactive: MDA-MB-435 > 100 µM | SF-268 > 100 µM | SK-OV-3 > 100 µM | Hs-578T > 100 µM | SK-MEL-28 > 100 µM | U-251 > 100 µM | RPMI-8226 > 100 µM | ACHN > 100 µM | SF-295 > 100 µM | CCRF-CEM > 100 µM | TK-10 > 100 µM | IGROV-1 > 100 µM | M14 > 100 µM | OVCAR-5 > 100 µM | CAKI-1 > 100 µM | Malme-3M > 100 µM | OVCAR-8 > 100 µM | RXF 393 > 100 µM | HOP-62 > 100 µM
> 100 µM: HCT-15

COC(c1ccc(O)cc1)C1NC(=O)[C@H](CCC(N)=O)N(C)C(=O)[C@H](CC(C)C)NC(=O)[C@@H](CCCN=C(N)N)NC(=O)[C@H](C(C)O)NC(=O)[C@@H](NC(=O)[C@@H](NC(=O)[C@H](O)[C@H](O)[C@H](CCCN=C(N)N)NC(=O)[C@H](C)NC(=O)[C@H](C)[C@H](O)[C@@H](C)CC(C)C)[C@@H](C)[C@@H](C)C(N)=O)[C@@H](C)OC(=O)[C@H](C)N(C)C1=O (stereo partly drawn) (X50-A[γ4hArg(2R,3R-(OH)2)][Gln(3S,4R-Me2)]T[Thr(3ξ)][dR]L[NMeQ][X51][NMeA]; ester 4-C)
active: MDA-MB-435 0.145 µM | SF-268 0.0525 µM | SK-OV-3 0.189 µM | Hs-578T 0.0405 µM | SK-MEL-28 0.223 µM | U-251 0.121 µM | RPMI-8226 0.106 µM | ACHN 0.115 µM | SF-295 0.0925 µM | CCRF-CEM 0.151 µM | TK-10 0.146 µM | IGROV-1 0.0746 µM | M14 0.115 µM | OVCAR-5 0.167 µM | CAKI-1 0.102 µM | Malme-3M 0.084 µM | OVCAR-8 0.0889 µM | RXF 393 0.267 µM | HOP-62 0.15 µM
0.133 µM: HCT-15

CCOC(=O)CN1C(=O)c2cc([N+](=O)[O-])cc3cc([N+](=O)[O-])cc(c23)C1=O
inactive: MDA-MB-435 13.8 µM | SF-268 18.4 µM | SK-OV-3 > 95.7 µM | Hs-578T > 100 µM | SK-MEL-28 49.3 µM | U-251 > 88.5 µM | RPMI-8226 19.6 µM | ACHN 40 µM | SF-295 72.3 µM | CCRF-CEM 1.41 µM | TK-10 > 100 µM | IGROV-1 > 66.1 µM | M14 24.7 µM | OVCAR-5 > 100 µM | CAKI-1 30.5 µM | Malme-3M 43.5 µM | OVCAR-8 27.9 µM | RXF 393 11.9 µM | HOP-62 > 100 µM
17.3 µM: HCT-15

CCCCCCCCCCCCCCCC(=O)OC1C(O)C(O)C(O)C(O)C12CO2 (stereo not given)
24.5 µM: HCT-15
inactive: MDA-MB-435 48.5 µM | SF-268 34 µM | SK-OV-3 51.4 µM | Hs-578T 31.4 µM | SK-MEL-28 > 100 µM | U-251 17.5 µM | RPMI-8226 26.4 µM | ACHN 24.4 µM | SF-295 70.1 µM | CCRF-CEM 7.94 µM | TK-10 > 100 µM | IGROV-1 25.1 µM | M14 > 100 µM | OVCAR-5 56 µM | CAKI-1 13.6 µM | Malme-3M > 100 µM | OVCAR-8 22.8 µM | RXF 393 69.2 µM | HOP-62 > 100 µM

CN(C)CCOC(=O)c1ccc(N)cc1
> 100 µM: HCT-15
inactive: MDA-MB-435 41.8 µM | SF-268 41.6 µM | SK-OV-3 56.6 µM | Hs-578T 32.4 µM | SK-MEL-28 29.1 µM | U-251 32.1 µM | RPMI-8226 24.4 µM | ACHN 54.1 µM | SF-295 47.8 µM | CCRF-CEM 20.7 µM | TK-10 44.4 µM | IGROV-1 22.4 µM | M14 17.6 µM | OVCAR-5 29.6 µM | CAKI-1 32.3 µM | Malme-3M 49.8 µM | OVCAR-8 70.8 µM | RXF 393 97.1 µM | HOP-62 > 100 µM
